What was measured:
[1] = system: rat primary neuronal cultures; conditions: Nakazawa et al. (1998); cited from earlier work
[2] = biological target: sigma-1 receptor (Homo sapiens, UniProt Q99720); conditions: literature reports; cited from earlier work
[3] = system: cultured rat retinal neurons; conditions: Senda et al. (1998); cited from earlier work
[4] = system: SHR (spontaneous hypertensive) rats, stroke by MCA occlusion; test: Rotating pole test after MCA occlusion; type: in vivo, rat; conditions: 0.03-10 mg/kg s.c. or p.o. from two days after MCAO for 2-8 weeks; saline control
Text: (§1) Male 3 months old SHR (spontaneous hypertensive) rats are used for induction of stroke by MCA occlusion. This is the preferred strain since most stroke patients are hypertensive. The animals are anesthetized with Methohexital and a small craniectomy is made above the zygmotic arch to expose the middle cerebral artery, which is occluded with a 10-0 monofilament nylon thread distal to the origin of the striatal branches. The rats are not intubated and no catheters are inserted. Following MCA occlusion a large and reproducible infarct is obtained, leading to a robust sensorimotor deficit. The animals are kept on a 6 hr light/18 h dark cycle with free access to food and water. At two days after the MCAO the rats are treated with the compound I, II, III, IV, V, VI, VII, VIII, or IX (0.03-10 mg/kg) s.c. or p.o. and a control group is given saline for 2-8 weeks. At 2, 4, 6 and 8 weeks animals are tested in the rotating pole or cylinder test
A score of 6-0 is given for each direction: • 6, the animal crosses the pole with no foot slips; • 5, the animal crosses the pole with a few foot slips; • 4, the animal crosses the pole, slipping 50% of the footsteps; • 3, the animal crosses the pole with more than 50% foot slips; • 2, the animal walks a bit and then rotates around the pole; • 1, the animal rotates around the pole without crossing it; • 0, the animal falls off the pole. Cylinder Test for Asymmetric Use of Forelimb Use in Spontaneous Rearing

[5] = system: SHR (spontaneous hypertensive) rats, stroke by MCA occlusion; test: Cylinder test for asymmetric forelimb use after MCA occlusion; type: in vivo, rat; conditions: 0.03-10 mg/kg s.c. or p.o. from two days after MCAO for 2-8 weeks; saline control
Text: as §1
The cylinder test (modified from Schallert and Tillerson (Innovative models of CNS disease: from molecule to therapy. Clifton, N.J., Humana, 1999) is used to quantify the forelimb use for rearing on the cylinder wall. The rats are monitored as they move freely in a 20-cm-wide clear glass cylinder. Contacts made by each forepaw with the cylinder wall while rearing are scored by a blinded observer. A total of 20 contacts are recorded for each animal, and the number of impaired (left), both, and non-impaired forelimb contacts as percentage of total contacts is calculated. Baseline for rats is achieved by measuring the contacts made by each forepaw before MCAO.

[6] = system: NMDA-induced toxicity and seizures; conditions: in vivo models; Pontecorvo et al. (1991); cited from earlier work
[7] = biological target: sigma-1 site (Homo sapiens, UniProt Q99720); conditions: (+) isomers of benzomorphan opiates; Hellewell and Bowen (1990); cited from earlier work
Chain of sigma-1 site (Q99720 whole entry): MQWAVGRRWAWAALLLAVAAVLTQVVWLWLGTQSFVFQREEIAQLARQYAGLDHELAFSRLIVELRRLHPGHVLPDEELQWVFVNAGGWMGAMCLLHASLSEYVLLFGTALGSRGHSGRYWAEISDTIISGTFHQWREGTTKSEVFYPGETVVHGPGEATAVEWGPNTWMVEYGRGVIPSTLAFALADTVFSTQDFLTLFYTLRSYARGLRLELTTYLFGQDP

[8] = system: ischemia in gerbils; conditions: cited from earlier work
[9] = system: NMDA-type of glutamate receptors; conditions: cited from earlier work
[10] = hydrohalide salts, in particular the hydrochloride salt; WO 99/24436; cited from earlier work
[11] = biological target: sigma-2 receptor (Homo sapiens, UniProt Q5BJF2); conditions: Perregaard et al. (1995); cited from earlier work
Chain of sigma-2 receptor (Q5BJF2 whole entry, species assumed): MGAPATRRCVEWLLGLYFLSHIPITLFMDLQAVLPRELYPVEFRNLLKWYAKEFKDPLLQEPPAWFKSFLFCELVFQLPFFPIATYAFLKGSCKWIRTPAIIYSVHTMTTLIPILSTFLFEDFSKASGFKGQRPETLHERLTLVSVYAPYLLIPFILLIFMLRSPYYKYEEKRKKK

[12] = system: hypertensive rats exposed to permanent middle artery occlusion (MCAO), a model of ischemic stroke; test: Morris water maze after permanent MCAO; type: in vivo, rat; conditions: for Latency to Find Hidden Platform, TRIAL 3 / Latency to Find Hidden Platform, TRIAL 4 / Latency to Find Hidden Platform, TRIAL 5 / Latency to Find Hidden Platform, TRIAL 1 / Latency to Find Hidden Platform, TRIAL 2 / Path Length to Find Hidden Platform, TRIAL 1 / Path Length to Find Hidden Platform, TRIAL 2 / Path Length to Find Hidden Platform, TRIAL 3 / Path Length to Find Hidden Platform, TRIAL 4 / Path Length to Find Hidden Platform, TRIAL 5: 14 days from day 2 after MCAO, tested day 35; for Latency to Find Hidden Platform, TRIAL 1 / Latency to Find Hidden Platform, TRIAL 2 / Path Length to Find Hidden Platform, TRIAL 1 / Path Length to Find Hidden Platform, TRIAL 2 / Path Length to Find Hidden Platform, TRIAL 3 / Path Length to Find Hidden Platform, TRIAL 4 / Path Length to Find Hidden Platform, TRIAL 5: value (SEM)
Experimental: The Morris water maze was used to assess functional recovery, in particular recovery in a cognitive skill, in hypertensive rats after exposure to permanent middle artery occlusion (MCAO), a model of ischemic stroke.
Forty three hypertensive rats were exposed to permanent middle artery occlusion (MCAO). Starting at two days after occlusion and continuing for 14 days, Siramesine was administered p.o. in doses of 0.3 mg/kg (14 rats) or 1.0 mg/kg (14 rats). In a control group (15 rats), vehicle only was administered. On day 35 after permanent MCAO, the rats were assessed for their performance in the Morris Water Maze Test.
In the test, the rats were given a series of 6 trials, 1 hour apart in a large dark-colored tank (200 cm in ) filled with clear water at a temperature of 22.0±1.5° C. A 12×12-cm submerged platform (2 mm below the water surface) was placed in the northwest quadrant of the pool. The release point was always the southern end of the pool. The rats were lowered into the pool facing the wall, and then released. Each rat was given a maximum of 90 seconds to find the submerged platform. […] After remaining on the platform for 20 seconds, the rat was removed and placed in a dry cage. One hour later, each rat was given a second trial, using the same release position and platform position, to measure the rat's retention of the platform location. The process was repeated a total of 5 times for each rat, each trial 1 hour apart. The swim paths of the rats were recorded with a computer tracking system and the latency and the length of swim path to find the hidden platform were analyzed.

Chain of sigma-1 receptor (Q99720 whole entry): as the sequence (Q99720 whole entry) above

## COc1ccc(CCN2CCN(CCCc3ccccc3)CC2)cc1OC [SA4503, 1-(3,4-dimethoxyphenethyl)-4-(3-phenylpropyl) piperazine]
[1]
  suppression of hypoxia/hypoglycemia-induced neurotoxicity: significantly suppress hypoxia/hypoglycemia-induced neurotoxicity
[2]
  sigma-1 receptor functional activity: selective sigma-1 agonist
[3]
  activity against glutamate neurotoxicity: active against glutamate neurotoxicity

## COc1ccc(CCN2CCN(CCCc3ccccc3)CC2)cc1OC [IV]
[4]
  performance in rotating pole test versus control: perform better than the group 1 control animals
[5]
  performance in cylinder test versus control: perform better than the group 1 control animals

## COCCCC/C(=N\OCCN)c1ccc(C(F)(F)F)cc1 [compound I]
[4]
  performance in rotating pole test versus control: perform better than the group 1 control animals
[5]
  performance in cylinder test versus control: perform better than the group 1 control animals

## O=C(OCCN1CCOCC1)C1(c2ccccc2)CCCCC1 [III]
[4]
  performance in rotating pole test versus control: perform better than the group 1 control animals
[5]
  performance in cylinder test versus control: perform better than the group 1 control animals

## COc1ccc(CN2CCN(Cc3ccccc3)CC2)c(O)c1OC [IX]
[4]
  performance in rotating pole test versus control: perform better than the group 1 control animals
[5]
  performance in cylinder test versus control: perform better than the group 1 control animals

## COc1cccc2c1CCC(=O)N2CCCN1CCN(c2cccc(Cl)c2)CC1 [VII]
[4]
  performance in rotating pole test versus control: perform better than the group 1 control animals
[5]
  performance in cylinder test versus control: perform better than the group 1 control animals

## O=C(CCCN1CCC(O)(c2ccc(Cl)cc2)CC1)c1ccc(F)cc1 [haloperidol]
[6]
  protective effects against NMDA-induced toxicity and seizures: protective effects against NMDA-induced toxicity and seizures

## CN(CCc1ccc(Cl)c(Cl)c1)C1CCCCC1N1CCCC1 (stereo not drawn) [VIII]
[4]
  performance in rotating pole test versus control: perform better than the group 1 control animals
[5]
  performance in cylinder test versus control: perform better than the group 1 control animals

## O=C(NC1CCN(Cc2ccccc2)CC1)c1ccc(I)cc1 [II]
[4]
  performance in rotating pole test versus control: perform better than the group 1 control animals
[5]
  performance in cylinder test versus control: perform better than the group 1 control animals

## CCN(CC)CCOC(=O)C1(c2ccccc2)CCCC1 [caramiphen]
[6]
  protective effects against NMDA-induced toxicity and seizures: protective effects against NMDA-induced toxicity and seizures

## CC(C)=CCN1CCC2(C)c3cc(O)ccc3CC1C2C (single isomer, unassigned; (+)) [(+)pentazocine]
[7]
  affinity for the sigma-1 site compared to the sigma-2 site: nearly two orders of magnitude higher affinity for the sigma-1 site

## CCC(C/C=C/c1ccccc1)(c1ccccc1)N(C)CC1CC1 (stereo not drawn) [VI]
[4]
  performance in rotating pole test versus control: perform better than the group 1 control animals
[5]
  performance in cylinder test versus control: perform better than the group 1 control animals

## OCCN1CCN(CCCN2c3ccccc3C=Cc3ccccc32)CC1 [opipramol]
[8]
  protection against ischemia: protect against ischemia in gerbils
[9]
  modulation of NMDA-type glutamate receptors: modulate the NMDA-type of glutamate receptors

## OC(CCCN1CCN(c2ncc(F)cn2)CC1)c1ccc(F)cc1 (stereo not drawn) [BMY-14802]
[6]
  protective effects against NMDA-induced toxicity and seizures: protective effects against NMDA-induced toxicity and seizures

## Fc1ccc(-n2cc(CCCCN3CCC4(CC3)OCc3ccccc34)c3ccccc32)cc1 [Siramesine, 1′-[4-[1-(4-fluorophenyl)-1H-indol-3-yl]-1-butyl] spiro [isobenzofuran-1(3H),4′-piperidine]]
[4]
  performance in rotating pole test versus control: perform better than the group 1 control animals
[5]
  performance in cylinder test versus control: perform better than the group 1 control animals
[2]
  sigma-1 receptor functional activity: displays activity towards the sigma 1 receptor
[10]
  bioavailability: good bioavailability
[11]
  sigma-2 receptor functional activity: selective sigma-2 agonist
[12]; 0.3 mg/kg p.o.
  Latency to Find Hidden Platform, TRIAL 3: 47.0 s
  Latency to Find Hidden Platform, TRIAL 4: 33.1 s
  Latency to Find Hidden Platform, TRIAL 5: 15.66 s
  Latency to Find Hidden Platform, TRIAL 1: 72.4 (7.3) SECONDS
  Latency to Find Hidden Platform, TRIAL 2: 43.6 (7.9) SECONDS
  Path Length to Find Hidden Platform, TRIAL 1: 14.5 (1.8) METERS
  Path Length to Find Hidden Platform, TRIAL 2: 12.4 (2.3) METERS
  Path Length to Find Hidden Platform, TRIAL 3: 14.4 (2.7) METERS
  Path Length to Find Hidden Platform, TRIAL 4: 10.4 (2.4) METERS
  Path Length to Find Hidden Platform, TRIAL 5: 4.3 (0.6) METERS
[12]; 1.0 mg/kg p.o.
  Latency to Find Hidden Platform, TRIAL 3: 59.99 s
  Latency to Find Hidden Platform, TRIAL 4: 34.3 s
  Latency to Find Hidden Platform, TRIAL 5: 19.8 s
  Latency to Find Hidden Platform, TRIAL 1: 62.4 (7.7) SECONDS
  Latency to Find Hidden Platform, TRIAL 2: 62.2 (8.5) SECONDS
  Path Length to Find Hidden Platform, TRIAL 1: 11.1 (1.4) METERS
  Path Length to Find Hidden Platform, TRIAL 2: 16.2 (2.2) METERS
  Path Length to Find Hidden Platform, TRIAL 3: 16.65 (2.2) METERS
  Path Length to Find Hidden Platform, TRIAL 4: 9.7 (1.9) METERS
  Path Length to Find Hidden Platform, TRIAL 5: 5.29 (1.5) METERS
[12]; administered daily to rats from 2 days after the stroke for 14 days
  functional recovery, in particular recovery in a cognitive skill: facilitates functional recovery
